According to patent publication US5143938A, “Propanamines, their pharmacological properties and their application for therapeutic in particular antidiarrheal, purposes” (Jouveinal S.A., priority 1990, dated 1992):

Assays:
[1] = Antidiarrheal activity in rats: inhibition of castor oil-induced diarrhea; assay type: in vivo
Description: This test is performed by studying the activity of the test compounds with respect to the diarrheaphenomenon caused in animals by the administration of castor oil.
The method consists in administering the test product in solution orally, one hour before the administration, also oral, of 1.0 ml of castor oil per animal.
The animals are then observed, and the number of rats which emit liquid stools is determined on an all-or-nothing basis every hour during the seven hours following administration of the diarrheal agent.

[2] = Activity with respect to gastrointestinal transit in rats (semi-solid charcoal meal); assay type: in vivo; details: for Activity with respect to intestinal transit, percentage change relative to the controls / effect on intestinal transit, in words: 30 mg/kg oral; for Activity with respect to intestinal transit, percentage change relative to the controls: one hour before meal, positive = accelerated, negative = slowed down
Description: The test is carried out according to the technique described by Green A. F., J. Pharmacol., 1959, 14, 26-34. It consists in determining in rats the distance travelled in the animal's intestine by a semi-solid meal after a specified time.
The test products are administered orally one hour before gavage of the animal with a semi-solid meal containing vegetable charcoal as a tracer. 15 minutes after the administration, the animal is sacrificed and the distance travelled in the intestine by the meal is expressed in relation to the total length.
This ratio, for the treated animals, is compared with that observed in control animals receiving only the meal.
In this test, the products of the invention were administered on the basis of 30 mg/kg and the results expressed as a percentage change relative to the controls, the ratio being positive when transit is accelerated and negative when it is slowed down; […]

[3] = mouse, in vivo
in vivo = details: mouse, po
[4] = Rattus norvegicus, po, 3 h; read-out: ED 50 at 3 h., antidiarrheal activity

| Compound | ED50 [1, 4] | Activity with respect to intestinal transit, percentage change relative to the controls [2] | further results |
| --- | --- | --- | --- |
| C=CCN(C)C(CC)(CCC(=O)c1ccccc1)c1ccccc1 (stereo not drawn) [Example 10, N-allyl-1,4-diphenyl-4-N-methylamino-hexan-1-one] | 24.2 mg/kg | -6% | – |
| CCC(CCC(=O)c1cc(OC)c(OC)c(OC)c1)(c1ccc(Cl)cc1)N(C)C (stereo not drawn) [Example 9.a, 4-(4-chlorophenyl)-4-N,N-dimethylamino-1-(3,4,5-trimethoxyphenyl)-hexan-1-one] | 6 mg/kg | -15% | – |
| CCC(CCC(=O)c1ccc(Cl)c(Cl)c1)(c1ccccc1)N(C)C (stereo not drawn) [Example 9.g, 1-(3,4-dichlorophenyl)-4-N,N-dimethylamino-4-phenyl-hexan-1-one] | 3 mg/kg | -25% | – |
| CCC(CCC(=O)c1cc(OC)c(OC)c(OC)c1)(c1ccc(C)cc1)N(C)C (stereo not drawn) [Example 9.b.2, 4-N,N-dimethylamino-4-(4-methylphenyl)-1-(3,4,5-trimethoxyphenyl)-hexan-1-one] | 2 mg/kg | -14% | – |
| CCC(CCC1(c2cc(OC)c(OC)c(OC)c2)OCCO1)(NC)c1ccc(C(F)(F)F)cc1 (stereo not drawn) [Example 3.f, 2-[3-N-Methylamino-3-(4-trifluoromethylphenyl)-pentan-1-yl]-2-(3,4,5-trimethoxyphenyl)-1,3-dioxolane] | 6 mg/kg | -17% | – |
| CCC(CCC1(c2cc(OC)cc(OC)c2)OCCO1)(NC)c1ccccc1 (stereo not drawn) [Example 3.c, 2-(3-N-methylamino-3-phenyl-pentan-1-yl)-2-(3,5-dimethoxyphenyl)-1,3-dioxolane] | 16 mg/kg | -3% | effect on intestinal transit, in words [2]: zero |
| CN(C)C(=O)C(CCN1CCC(O)(c2ccc(Cl)cc2)CC1)(c1ccccc1)c1ccccc1 [Loperamide, 4-(4-chlorophenyl)-4-hydroxy-N,N-dimethyl-α,α-diphenyl-1-piperidinebutanamide, reference compound] | – | – | ED50 ([1]; Rattus norvegicus, po, 3 h, read-out: ED 50 at 3 h., antidiarrheal activity): 0.2 mg/kg; ED50 ([2]; Rattus norvegicus, po, read-out: ED50 slowing down transit by 50%): 1.79 mg/kg; toxicity at the administration doses, in words [3]: too toxic; TD50 (in vivo): 75 mg/kg |
| CCC(CCC(=O)c1cc(OC)c(OC)c(OC)c1)(c1ccc(C(F)(F)F)cc1)N(C)C (stereo not drawn) [Example 9.c, 4-N,N-dimethylamino-4-(4-trifluoromethvlphenvl)-1-(3,4,5-trimethoxyphenyl)-hexan-1-one] | 15 mg/kg | +2% | effect on intestinal transit, in words [2]: zero |
| CCC(CCC1(c2ccccc2)SCCS1)(c1ccccc1)N(C)C (stereo not drawn) [Example 12, 2-(3-N,N-dimethylamino-3-phenyl-pentan-1-yl)-2-phenyl-1,3-dithiolane] | 23.1 mg/kg | -12% | – |
| CN1CC[C@]23c4c5ccc(O)c4O[C@H]2[C@@H](O)C=C[C@H]3[C@H]1C5 [Morphine, reference compound] | – | – | ED 50 at 3 h., antidiarrheal activity ([1]; oral, one hour before 1.0 ml castor oil; inhibition of effect in 50% of animals at 3 h): 0.83 mg/kg; ED50 slowing down transit by 50% ([2]; oral, dose at which activity is -50%): 10 mg/kg |
